Patent US20110077237A1, “KINASE INHIBITORS” (VERTEX PHARMACEUTICALS INCORPORATED, priority 2007, published 2011)

These compounds were tested against PKC delta kinase (Homo sapiens, UniProt Q05655) (assay: PKC Delta coupled-enzyme kinase assay). Details: not given.
Chain of PKC delta kinase (Q05655 whole entry): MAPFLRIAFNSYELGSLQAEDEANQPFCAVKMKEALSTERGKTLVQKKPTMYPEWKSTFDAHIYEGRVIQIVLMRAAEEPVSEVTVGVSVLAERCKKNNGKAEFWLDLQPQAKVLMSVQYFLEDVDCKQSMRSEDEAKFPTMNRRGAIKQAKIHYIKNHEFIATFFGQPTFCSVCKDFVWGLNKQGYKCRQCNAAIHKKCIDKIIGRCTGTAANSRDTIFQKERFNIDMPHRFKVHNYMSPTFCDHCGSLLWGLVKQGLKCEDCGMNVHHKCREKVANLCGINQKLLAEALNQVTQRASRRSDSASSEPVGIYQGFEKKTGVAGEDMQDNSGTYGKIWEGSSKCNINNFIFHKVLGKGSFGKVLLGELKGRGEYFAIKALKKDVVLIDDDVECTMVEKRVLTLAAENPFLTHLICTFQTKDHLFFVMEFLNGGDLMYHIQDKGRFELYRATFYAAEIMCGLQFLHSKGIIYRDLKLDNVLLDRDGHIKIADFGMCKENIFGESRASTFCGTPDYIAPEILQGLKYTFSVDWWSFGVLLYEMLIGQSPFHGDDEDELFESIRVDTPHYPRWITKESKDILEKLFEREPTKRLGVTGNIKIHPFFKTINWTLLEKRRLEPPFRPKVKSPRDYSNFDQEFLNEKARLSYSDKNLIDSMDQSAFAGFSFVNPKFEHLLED
Format: biochemical
Procedure: An assay buffer solution was prepared which consisted of 100 mM HEPES (pH 7.5), 10 mM MgCl2, 25 mM NaCl, 0.1 mM EDTA and 0.01% Brij. […] To 16 μL of this enzyme buffer, in a 384 well plate, was added 1 μL of VRT stock solution in DMSO. The mixture was allowed to equilibrate for 10 mins at 30° C. […] Ki values were calculated from initial rate data by non-linear regression using the Prism software package (Prism 4.0a, Graphpad Software, San Diego, Calif.).
In the case of `Nc1ncccc1C(=O)c1cccc(N2CCC(N)CC2)n1` [compound 86], the Ki is reported as 50 to 500 nM. `CC(C)(C)[C@H]1CN(c2cccc(C(=O)c3cccnc3N)n2)CCN1` [compound 225] gave a Ki of 50 to 500 nM. `CC1(C)CN(c2cccc(C(=O)c3cccnc3N)n2)CCN1` [compound 226] showed a Ki of 50 to 500 nM. With `CC(C)[C@@H]1CN(c2cccc(C(=O)c3cccnc3N)n2)CCN1` [compound 231] the Ki was 500 to 2800 nM.

Same assay, conditions: 46 nM PKC delta, 150 μM ATP, 30° C.; read-out: Ki PKC delta
In the case of `Nc1ncccc1C(=O)c1cccc(N2CCN3CCCC3C2)n1` (single isomer, unassigned) [compound 211], the Ki is reported as 50 to 500 nM. Work on `Nc1ncccc1C(=O)c1cccc(N2CCCN(C(=O)CCC(F)(F)F)CC2)n1` [compound 31] yielded a Ki of 500 to 2800 nM. Work on `Nc1ncccc1C(=O)c1cccc(N2CCCN(C(=O)Cc3ccccc3)CC2)n1` [compound 33] yielded a Ki of 50 to 500 nM. `CC(C)C(=O)N1CCCN(c2cccc(C(=O)c3cccnc3N)n2)CC1` [compound 34] gave a Ki of 500 to 2800 nM. `Nc1ncccc1C(=O)c1cccc(N2CCCN(C(=O)CC3CC3)CC2)n1` [compound 35] gave a Ki greater than 2800 nM. For `CC(C)(C)C(=O)N1CCCN(c2cccc(C(=O)c3cccnc3N)n2)CC1` [compound 37], the Ki was 500 to 2800 nM. Compound `CC(C)(C)CCN1CCCN(c2cccc(C(=O)c3cccnc3N)n2)CC1` [compound 44] has a Ki greater than 2800 nM. Compound `Cc1ccccc1-c1cnc(N)c(C(=O)c2cccc(N3CCCNCC3)n2)c1` [compound 57] has a Ki of 500 to 2800 nM. In the case of `Nc1ncc(-c2cccnc2)cc1C(=O)c1cccc(N2CCCNCC2)n1` [compound 58], the Ki is reported as 50 to 500 nM. `Cc1ccc(-c2cnc(N)c(C(=O)c3cccc(N4CCCNCC4)n3)c2)cc1` [compound 59] showed a Ki of 50 to 500 nM. Compound `Nc1ncc(Br)cc1C(=O)c1ncc(C(=O)NCc2ccccc2)s1` [compound 62] has a Ki of 50 to 500 nM. `Nc1ncc(Br)cc1C(=O)c1cccc(N2CCCN(CCO)CC2)n1` [compound 98] was tested, and the Ki was 50 to 500 nM. Work on `CC(C)N1CCN(c2cccc(C(=O)c3cc(Br)cnc3N)n2)CC1` [compound 100] yielded a Ki of 50 to 500 nM. Work on `Nc1ncccc1C(=O)c1nc(N2CCCNCC2)cs1` [compound 102] yielded a Ki of 50 to 500 nM. `Nc1ncc(Br)cc1C(=O)c1cncc(N2CCCNCC2)n1` [compound 149] gave a Ki of 50 to 500 nM. `Nc1ncc(Br)cc1C(=O)c1cccc(N2CCCN(C(=O)c3ccccc3C(F)(F)F)CC2)n1` [compound 150] gave a Ki of 50 to 500 nM. Compound `Nc1ncc(Br)cc1C(=O)c1cccc(N2CCCN(C(=O)c3ccccc3Cl)CC2)n1` [compound 151] has a Ki of 500 to 2800 nM. With `C=Cc1cnc(N)c(C(=O)c2cccc(N3CCCN(C)CC3)n2)c1` [compound 152] the Ki was 50 to 500 nM. `CCc1cnc(N)c(C(=O)c2cccc(N3CCCN(C)CC3)n2)c1` [compound 153] was tested, and the Ki was 500 to 2800 nM. With `Nc1ncc(C2CC2)cc1C(=O)c1cccc(N2CCCNCC2)n1` [compound 154] the Ki was 50 to 500 nM. Work on `Cc1cnc(N)c(C(=O)c2cccc(N3CCCNCC3)n2)c1` [compound 155, (6-(1,4-diazepan-1-yl)pyridin-2-yl)(2-amino-5-methylpyridin-3-yl)methanone bis(2,2,2-trifluoroacetate)] yielded a Ki of 500 to 2800 nM. With `CN1CCCN(c2cncc(C(=O)c3cc(Br)cnc3N)n2)CC1` [compound 156] the Ki was 50 to 500 nM. Compound `CN1CCCN(c2csc(C(=O)c3cc(Br)cnc3N)n2)CC1` [compound 163] has a Ki of 50 to 500 nM. `C=Cc1cnc(N)c(C(=O)c2cncc(N3CCCNCC3)n2)c1` [compound 165] was tested, and the Ki was 50 to 500 nM. Compound `Nc1ncc(/C=C/c2ccccc2)cc1C(=O)c1cccc(N2CCCNCC2)n1` [compound 167] has a Ki of 50 to 500 nM. For `Nc1cccc(-c2cnc(N)c(C(=O)c3cccc(N4CCCNCC4)n3)c2)c1` [compound 169], the Ki was 50 to 500 nM. `Nc1ccc(-c2cnc(N)c(C(=O)c3cccc(N4CCCNCC4)n3)c2)cc1` [compound 170] showed a Ki of 50 to 500 nM. `Nc1ncc(-c2ccc(O)cc2)cc1C(=O)c1cccc(N2CCCNCC2)n1` [compound 171] gave a Ki of 50 to 500 nM. In the case of `Nc1ncc(-c2cccc(O)c2)cc1C(=O)c1cccc(N2CCCNCC2)n1` [compound 172], the Ki is reported as 50 to 500 nM. In the case of `COc1cccc(-c2cnc(N)c(C(=O)c3cccc(N4CCCNCC4)n3)c2)c1` [compound 181], the Ki is reported as 50 to 500 nM. In the case of `Cc1cccc(-c2cnc(N)c(C(=O)c3cccc(N4CCCNCC4)n3)c2)c1` [compound 182], the Ki is reported as 50 to 500 nM. `Nc1ncc(-c2ccc[nH]2)cc1C(=O)c1cccc(N2CCCNCC2)n1` [compound 183] gave a Ki of 50 to 500 nM. With `COc1ccc(-c2cnc(N)c(C(=O)c3cccc(N4CCCNCC4)n3)c2)cc1` [compound 186] the Ki was 50 to 500 nM. With `Nc1ncc(Br)cc1C(=O)c1cccc(N2CCNCC2)n1` [compound 195] the Ki was 50 to 500 nM. `Nc1ncc(-c2cc[nH]c2)cc1C(=O)c1cccc(N2CCCNCC2)n1` [compound 199] showed a Ki of 50 to 500 nM. Compound `Nc1ncc(-c2csc3ccccc23)cc1C(=O)c1cccc(N2CCCNCC2)n1` [compound 200] has a Ki of 50 to 500 nM. For `Nc1ncc(-c2ccsc2)cc1C(=O)c1cccc(N2CCCNCC2)n1` [compound 201], the Ki was 50 to 500 nM. In the case of `Nc1ncc(-c2ccccc2)cc1C(=O)c1cccc(N2CCNCC2)n1` [compound 206], the Ki is reported as 50 to 500 nM. `C[C@H]1CN(c2cccc(C(=O)c3cccnc3N)n2)[C@@H](C)CN1` [compound 218] gave a Ki of 50 to 500 nM. Compound `CC(C)C[C@H]1CN(c2cccc(C(=O)c3cccnc3N)n2)CCN1C(=O)CC(F)(F)F` [compound 219] has a Ki greater than 2800 nM. For `CC1CN(c2cccc(C(=O)c3cccnc3N)n2)C(C)CN1` (centres unmarked) [compound 222], the Ki was 50 to 500 nM. Work on `C[C@H]1CNCCN1c1cccc(C(=O)c2cccnc2N)n1` [compound 228] yielded a Ki of 50 to 500 nM. In the case of `CC(C)C[C@H]1CN(c2cccc(C(=O)c3cc(Br)cnc3N)n2)CCN1` [compound 232], the Ki is reported as 50 to 500 nM. `C=Cc1cnc(N)c(C(=O)c2cccc(N3CCN[C@@H](CC(C)C)C3)n2)c1` [compound 233] was tested, and the Ki was 50 to 500 nM. `CC(C)[C@@H]1CNCCN1c1cccc(C(=O)c2cccnc2N)n1` [compound 237] gave a Ki of 50 to 500 nM. `CC(C)C[C@H]1CN(c2cccc(C(=O)c3cc(-c4ccccc4)cnc3N)n2)CCN1` [compound 239] gave a Ki of 500 to 2800 nM. Work on `Cc1cc(C)c(CC2CN(c3cccc(C(=O)c4cccnc4N)n3)CCN2)c(C)c1` (centres unmarked) [compound 244] yielded a Ki greater than 2800 nM. For `Nc1ncc(Cl)cc1C(=O)c1cccc(N2CCCNCC2)n1` [compound 245], the Ki was 50 to 500 nM. For `Cc1sc(N2CCNC[C@H]2C)nc1C(=O)c1cccnc1N` [compound 247], the Ki was 500 to 2800 nM. `Nc1ncccc1C(=O)c1cccc(N2CCNC(c3cccnc3)C2)n1` (centres unmarked) [compound 249] gave a Ki of 50 to 500 nM. `Cc1ccc(N2CCNC(c3ccccc3)C2)nc1C(=O)c1cccnc1N` (centres unmarked) [compound 252] showed a Ki of 50 to 500 nM. Compound `Cc1sc(N2CCNC(c3ccccc3)C2)nc1C(=O)c1cccnc1N` (centres unmarked) [compound 256] has a Ki of 500 to 2800 nM. `Nc1ncccc1C(=O)c1cccc(N2CCNC(c3ccccc3Cl)C2)n1` (centres unmarked) [compound 258] was tested, and the Ki was 50 to 500 nM. `Nc1ncc(-c2cccc(O)c2)cc1C(=O)c1cccc(N2CCNC(c3ccccc3)C2)n1` (centres unmarked) [compound 260] was tested, and the Ki was 50 to 500 nM. Compound `Nc1ncc(-c2ccccc2)cc1C(=O)c1cccc(N2CCNC(c3ccccc3)C2)n1` (centres unmarked) [compound 262] has a Ki of 500 to 2800 nM. Compound `Nc1ncc(-c2cccs2)cc1C(=O)c1cccc(N2CCNC(c3ccccc3)C2)n1` (centres unmarked) [compound 263] has a Ki of 50 to 500 nM. Work on `Nc1ncc(-c2ccsc2)cc1C(=O)c1cccc(N2CCNC(c3ccccc3)C2)n1` (centres unmarked) [compound 264] yielded a Ki of 500 to 2800 nM. Work on `Nc1ncc(-c2cc3ccccc3s2)cc1C(=O)c1cccc(N2CCNC(c3ccccc3)C2)n1` (centres unmarked) [compound 265] yielded a Ki of 500 to 2800 nM.
